Results as given in PubChem BioAssay (NCI).
Values joined by “and” are separate entries in the source; they are usually repeats but may differ in a detail not shown here. Equal values may be shown once.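 Dose response: 5 concentrations. Exposure: 48 h. Format: 96-well plates. Endpoint: linear interpolation; highest concentration if not reached. At the GI50, growth is halved. TGI marks complete inhibition of growth.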

Key:
Assay in all cases: inhibition of tumour cell growth, NCI panel, 48 h
[1] = system: MDA-MB-231 breast
[2] = system: NCI-H226 lung
[3] = system: OVCAR-5 ovarian
[4] = system: CCRF-CEM leukemia
[5] = system: UACC-257 melanoma
[6] = system: HCT-15 colon
[7] = system: KM12 colon
[8] = system: DU-145 prostate
[9] = system: HS 578T breast
[10] = system: SK-MEL-28 melanoma

In the case of COc1ccc2nc3cc([N+](=O)[O-])ccc3c(NCCCN(CCO)CCO)c2c1, the GI50 [1] is reported as 7.78 µM, the TGI [1] is reported as 21.8 µM and the GI50 [2] is reported as 8.1 µM. For the same molecule, the TGI [2] was 21.5 µM, the GI50 [3] was 12.5 µM and the TGI [3] was 25.2 µM. For the same molecule, the GI50 [4] was 3.78 µM, the TGI [4] was 14.6 µM and the GI50 [5] was 2.82 µM. For the same molecule, the TGI [5] was 7.55 µM, the GI50 [6] was 12.8 µM and the TGI [6] was 25.4 µM. It also gave a GI50 [7] of 2.64 µM, a TGI [7] of 9.97 µM and a GI50 [8] of 12.6 µM. For the same molecule, the TGI [8] was 43.4 µM, the GI50 [9] was 4.06 µM and the TGI [9] was 12.5 µM. For the same molecule, the GI50 [10] was 3.93 µM and the TGI [10] was 13 µM.

Work on CCCCOC(=O)c1ccc(NC(=O)CCl)cc1 yielded a GI50 [1] of 1.63 µM, a TGI [1] of 3.26 µM and a GI50 [2] of 4.82 µM. It also gave a TGI [2] of 23.1 µM, a GI50 [3] of 2.16 µM and a TGI [3] of 4.45 µM. The GI50 [4] was 0.789 µM, the TGI [4] was 6.07 µM and the GI50 [5] was 3.05 µM. The TGI [5] was 8.66 µM, the GI50 [6] was 1.43 µM and the TGI [6] was 3.19 µM. For the same molecule, the GI50 [7] was 2.07 µM, the TGI [7] was 4.52 µM and the GI50 [8] was 1.81 µM. The TGI [8] was 3.26 µM, the GI50 [9] was 9.16 µM and the TGI [9] was 57.3 µM. For the same molecule, the GI50 [10] was 3.87 µM and the TGI [10] was 13.6 µM.

With C[n+]1c2ccccc2c(Nc2ccc(NS(=O)(=O)CCCCN=C(N)N)cc2)c2ccc(N)cc21 the GI50 [1] was 43.6 µM, the TGI [1] was > 100 µM and the GI50 [2] was 0.128 µM. For the same molecule, the TGI [2] was 31.2 µM, the GI50 [3] was 41.8 µM and the TGI [3] was > 100 µM. The GI50 [4] was 0.303 µM, the TGI [4] was > 35.9 µM and the GI50 [5] was 21.7 µM. For the same molecule, the TGI [5] was > 95.6 µM, the GI50 [6] was 50.9 µM and the TGI [6] was > 100 µM. The GI50 [7] was 3.5 µM, the TGI [7] was > 79.1 µM and the GI50 [8] was 0.163 µM. The TGI [8] was 66.4 µM, the GI50 [9] was 2.79 µM and the TGI [9] was 52.3 µM. For the same molecule, the GI50 [10] was 11.2 µM and the TGI [10] was > 72.3 µM.

With COc1cc(F)cc([C@@H](CO)NC(=O)[C@@H](C)N2Cc3ccc(-c4nc(NC5CCOCC5)ncc4Cl)cc3C2=O)c1 the GI50 [1] was < 0.0175 µM, the TGI [1] was 18.7 µM and the GI50 [2] was 1.3 µM. The TGI [2] was 33.2 µM, the GI50 [3] was < 0.0127 µM and the TGI [3] was > 100 µM. The GI50 [4] was 17.1 µM, the TGI [4] was > 92.8 µM and the GI50 [5] was < 0.01 µM. For the same molecule, the TGI [5] was 0.0367 µM, the GI50 [6] was 6.08 µM and the TGI [6] was > 86.7 µM. For the same molecule, the GI50 [7] was 0.0988 µM, the TGI [7] was 37.4 µM and the GI50 [8] was 12.3 µM. For the same molecule, the TGI [8] was > 84.2 µM, the GI50 [9] was 4.96 µM and the TGI [9] was > 81.9 µM. For the same molecule, the GI50 [10] was < 0.01 µM and the TGI [10] was 0.0318 µM.

NC(=S)N/N=C/c1ccc(O)cn1 was tested, and the TGI [1] was > 427 µM, the GI50 [2] was 29.7 µM and the TGI [2] was 83.7 µM and 374 µM. The GI50 [3] was 30.2 µM and 34.8 µM, the TGI [3] was > 1500 µM and 928 µM and the GI50 [4] was 4.59 µM and 2.42 µM. For the same molecule, the TGI [4] was 37.4 µM and 12 µM and 60.8 µM, the GI50 [5] was 25.6 µM and 34 µM and the TGI [5] was 74.2 µM and 112 µM and 149 µM. The GI50 [6] was 22.1 µM and 13.3 µM, the GI50 [7] was 35 µM and the TGI [7] was > 1500 µM. The TGI [8] was 314 µM, the TGI [9] was > 1500 µM and the GI50 [10] was 49.9 µM and 41.6 µM. The TGI [10] was > 1500 µM and 1050 µM.

With COc1ccc(-c2nn(-c3cccc(Cl)c3)cc2-c2c(C#N)c(=O)n3[nH]c(-c4ccc(C)cc4)nc3c2C#N)cc1 the GI50 [1] was 1.16 µM, the TGI [1] was 5.25 µM and the GI50 [2] was 2.39 µM. For the same molecule, the TGI [2] was 9.62 µM, the GI50 [3] was 4.5 µM and the TGI [3] was 11.8 µM. For the same molecule, the GI50 [4] was 1.23 µM, the TGI [4] was > 50 µM and the GI50 [5] was 6.68 µM. For the same molecule, the TGI [5] was 16.7 µM, the GI50 [6] was 9.95 µM and the TGI [6] was > 50 µM. The GI50 [7] was 3.39 µM, the TGI [7] was 24.2 µM and the GI50 [8] was 2.74 µM. The TGI [8] was 21.9 µM, the GI50 [9] was 1.23 µM and the TGI [9] was 15 µM. It also gave a GI50 [10] of 6.55 µM and a TGI [10] of 13.2 µM.

For O=C(O)c1ccc2c3c(ncnc13)-c1ccccc1C2=O, the GI50 [1] was > 100 µM, the TGI [1] was > 100 µM and the GI50 [2] was 4.08 µM. For the same molecule, the TGI [2] was > 100 µM, the GI50 [3] was 37.9 µM and the TGI [3] was > 100 µM. For the same molecule, the GI50 [4] was > 84.6 µM, the TGI [4] was > 100 µM and the GI50 [5] was 8.6 µM. The TGI [5] was > 100 µM, the GI50 [6] was 2.47 µM and the TGI [6] was > 48 µM. For the same molecule, the GI50 [7] was 7 µM, the TGI [7] was > 100 µM and the GI50 [8] was 1.46 µM. It also gave a TGI [8] of 2.83 µM, a GI50 [9] of 1.19 µM and a TGI [9] of 6.28 µM. For the same molecule, the GI50 [10] was 1.64 µM and the TGI [10] was 4.04 µM.

With c1ccc(Nn2c(CCCCCCCCc3nnc(COc4ccccc4)n3Nc3ccccc3)nnc2COc2ccccc2)cc1 the GI50 [1] was 12.4 µM, the TGI [1] was > 300 µM and the GI50 [2] was 15.6 µM and 70.9 µM. For the same molecule, the TGI [2] was > 300 µM, the GI50 [3] was 8.56 µM and 10.2 µM and the TGI [3] was > 300 µM. The GI50 [4] was 2.91 µM, the TGI [5] was > 86.5 µM and the GI50 [6] was 9.88 µM and 5.62 µM. The TGI [6] was > 300 µM, the GI50 [7] was 5.7 µM and 2.69 µM and the TGI [7] was > 300 µM. The GI50 [8] was 35 µM and > 300 µM, the TGI [8] was > 300 µM and the GI50 [9] was 35.5 µM. The TGI [9] was > 300 µM, the GI50 [10] was 22.9 µM and 57.1 µM and the TGI [10] was > 300 µM.

O=c1oc(-c2ccccc2)cc2cccc(O)c12 was tested, and the GI50 [1] was 29.2 µM, the TGI [1] was > 85.7 µM and the GI50 [2] was 19.4 µM. For the same molecule, the TGI [2] was 51 µM, the GI50 [3] was 55.3 µM and the TGI [3] was > 100 µM. For the same molecule, the GI50 [4] was > 100 µM, the TGI [4] was > 100 µM and the GI50 [5] was > 71.9 µM. For the same molecule, the TGI [5] was > 100 µM, the GI50 [6] was 19.6 µM and the TGI [6] was > 100 µM. The GI50 [7] was 20.8 µM, the TGI [7] was > 69.3 µM and the GI50 [8] was > 48.7 µM. For the same molecule, the TGI [8] was > 100 µM, the GI50 [9] was 23.8 µM and the TGI [9] was 54.7 µM. For the same molecule, the GI50 [10] was > 100 µM and the TGI [10] was > 100 µM.

In the case of CCOC(=O)NC1=C(N2CC2)C(=O)C(NC(=O)OCC)=C(N2CC2)C1=O, the TGI [1] is reported as 15.3 µM, the GI50 [2] is reported as 18 µM and 11 µM and the TGI [2] is reported as 25 µM and 20 µM and 43 µM. For the same molecule, the GI50 [3] was 19.9 µM and 7.01 µM, the TGI [3] was 25 µM and 32.6 µM and 35.9 µM and the GI50 [4] was 3.47 µM and 1.88 µM. The TGI [4] was 9.8 µM and 16.1 µM and 12.1 µM, the GI50 [5] was 6.96 µM and the TGI [5] was 25 µM and 19.9 µM. For the same molecule, the GI50 [6] was 11.4 µM and 10.2 µM, the TGI [6] was 25 µM and 42.9 µM and 44.2 µM and the GI50 [7] was 16.7 µM. The TGI [7] was 25 µM and 35.3 µM, the TGI [8] was 25 µM and the TGI [9] was 24.7 µM. For the same molecule, the GI50 [10] was 22.3 µM and 16.6 µM and the TGI [10] was 25 µM and 42.4 µM and 54.4 µM.
